Results as given in publication PMC4496089, “Screening for FtsZ Dimerization Inhibitors Using Fluorescence Cross-Correlation Spectroscopy and Surface Resonance Plasmon Analysis” (PLoS ONE, 2015).
In brackets after ≈: the same amount, converted by molar mass. Entries after “also recorded” stand apart in the source; their conditions may differ. Where two headings read alike, the source gives them in different places.

What was measured:
[1] = tested on: P. aeruginosa ATCC 27853; assay: Antibiotic susceptibility test (broth microdilution MIC); assay type: cell-based; conditions: Pseudomonas aeruginosa
Experimental: (§1) Antimicrobial susceptibility testing was performed by broth microdilution in cation-adjusted Mueller–Hinton broth (CAMHB) according to the CLSI guidelines. Overnight culture was suspended in CAMHB, and the OD625 was measured using an Ultrospec 6300 pro spectrophotometer (GE Healthcare). The culture suspension was diluted to 0.01 of the OD625, and 5 μL of it was inoculated into test medium containing the test chemical. Then incubation was performed at 35°C for 16 to 20 hours. The final inoculum size corresponded to ca. 5 x 10^4 CFU per well, which corresponded to ca. 5 x 10^5 CFU/mL. The minimum inhibitory concentration (MIC) endpoint was defined as the lowest concentration of the test chemical that inhibited bacterial growth as detected by the unaided eye.

[2] = tested on: H. influenzae ATCC 10211; assay: as above; assay type: cell-based; conditions: Haemophilus influenzae
Experimental: as §1

[3] = tested on: A. baumannii ATCC 19606; assay: as above; assay type: cell-based; conditions: Acinetobacter baumannii
Experimental: as §1

[4] = tested on: E. faecium ATCC 19434; assay: as above; assay type: cell-based; conditions: Enterococcus faecium
Experimental: as §1

[5] = tested on: S. aureus SR3637 (MRSA); assay: as above; assay type: cell-based; conditions: Staphylococcus aureus, read-out: Minimal inhibitory concentration
Experimental: as §1

[6] = tested on: K. pneumoniae ATCC 13883; assay: as above; assay type: cell-based; conditions: Klebsiella pneumoniae
Experimental: as §1

[7] = tested on: E. faecalis ATCC 29212; assay: as above; assay type: cell-based; conditions: Enterococcus faecalis
Experimental: as §1

[8] = tested on: S. pneumoniae Type I; assay: as above; assay type: cell-based; conditions: Streptococcus pneumoniae, read-out: Minimal inhibitory concentration
Experimental: as §1

[9] = tested on: E. faecalis SR7914 (VRE); assay: as above; assay type: cell-based; conditions: Enterococcus faecalis, read-out: Minimal inhibitory concentration
Experimental: as §1

[10] = tested on: E. faecium SR7917 (VRE); assay: as above; assay type: cell-based; conditions: Enterococcus faecium, read-out: Minimal inhibitory concentration
Experimental: as §1

[11] = tested on: E. coli ATCC 25922; assay: as above; assay type: cell-based; conditions: Escherichia coli
Experimental: as §1

[12] = tested on: S. aureus ATCC 29213 (MSSA); assay: as above; assay type: cell-based, Staphylococcus aureus; conditions: for MIC: Staphylococcus aureus, read-out: Minimal inhibitory concentration
Experimental: as §1

[13] = tested on: S. aureus FtsZ (FtsZ^K175D_N-terminal-EGFP and FtsZ_C-terminal-mCherry); assay: FCCS screening for inhibition of GTP-dependent head-to-tail dimerization of fragmented FtsZ; assay type: biochemical, Staphylococcus aureus; conditions: from FCCS binding ratio; chemical 20 or 100 μM, GTP 2 mM, 30 min; mean (SD), n = 3
Experimental: The purified FtsZ^K175D_N-terminal-EGFP and FtsZ_C-terminal-mCherry were mixed in 0.44–0.85 μM each in a buffer composed of 50 mM Tris-HCl [pH 8.0], 500 mM Na2SO4 and 5 mM MgCl2. Mixed samples were dispensed as 48.5 μL aliquots into a 384-well glass bottom microplate (Olympus) and a 0.5 μL aliquot of the chemical at a concentration of 2 or 10 mM was added to each well. The final concentration of the chemicals was 20 or 100 μM. After mixing, FCCS measurement was performed (premeasurement, data not shown). After premeasurement of FCCS, 1 μL of GTP (100 mM) was added to each well (final concentration: 2 mM). After mixing and 30 min incubation at room temperature, FCCS measurement was performed. Using samples purified on a different day, independent screening was performed 3 times.
The data acquired from FCCS were analyzed using ZEN software (Zeiss, Germany). The fluorescence autocorrelation functions from the green, G G (τ), and red channels, G R (τ), and the fluorescence cross-correlation functions, G C (τ) were calculated according to the normalized correlation function. GG(τ)=1+⟨δIG(t)⋅δIG(t+τ)⟩/⟨IG(t)⟩⋅⟨IG(t)⟩ (1) GR(τ)=1+⟨δIR(t)⋅δIR(t+τ)⟩/⟨IR(t)⟩⋅⟨IR(t)⟩ (2) GC(τ)=1+⟨δIG(t)⋅δIR(t+τ)⟩/⟨IG(t)⟩⋅⟨IR(t)⟩ (3) where τ denotes the time delay, I G is the fluorescent intensity of the green channel, and I R is the fluorescent intensity of the red channel. The acquired autocorrelations were fitted using a two-component model, and cross-correlation was fitted using a one-component model. G(τ)=1+1−Ftriplet+Ftripletexp(−τ/τtrplet)/N(1−Ftriplet)×((Ffast/1+τ/τfast)1/1+τ/s^2τfast+(Fslow/1+τ/τslow)1/1+τ/s^2τslow) (4) where F triplet is the average fraction of triplet state molecules (in the fitting of cross-correlation, assuming F triplet is 0), τ triplet is the triplet relaxation time, and F fast and F slow are the fractions of the fast and slow components, respectively. τ fast and τ slow are the diffusion times of the fast and slow components, respectively. In the fitting of G G (τ), τ fast was fixed in the range from 100 to 200 μs. In the fitting of G R (τ), τ fast was fixed in the range from 200 to 300 μs. N is the average number of fluorescent particles in the excitation-detection volume defined by radius w, z is half of the long axis of the confocal volume element, and s is the structural parameter representing the ratio s = z/w. The values of w i (i = G or R) are determined from the diffusion coefficients of the rhodamine 6G and Alexa Fluor 594 used as standard dyes, respectively.
The average number calculated from autocorrelation N G and N R and complex cross-correlated particles N C is given by NG=1/GG(0)−1 (5) NR=1/GR(0)−1 (6) NC=GC(0)−1/(GR(0)−1)⋅(GG(0)−1) (7)
The binding ratio (BR), which directly indicates the tendency of interaction between FtsZ^K175D_N-terminal-EGFP and FtsZ_C-terminal-mCherry, was defined by the following Eq (8). When a chemical has a higher inhibitory effect, BR should be lower. BR=NC/NG (8)
Moreover, inhibition % was calculated using the following Eq (9). The inhibition % should be higher when the chemical has a higher inhibitory effect. inhibition%=BRDMSO,GTP(+)−BRchemical,GTP(+)/BRDMSO,GTP(+)×100 (9) where BR DMSO,GTP(+) is the binding ratio in the presence of DMSO (vehicle) and GTP is the control value indicating no inhibition, BR chemical,GTP(+) is the binding ratio in the presence a chemical and GTP. Considering the background, Eq (9) can be shown as follows. inhibition%=(BRDMSO,GTP(+)−BRbackground)−(BRchemical,GTP(+)−BRbackground)/BRDMSO,GTP(+)−BRbackground×100=BRDMSO,GTP(+)−BRchemical,GTP(+)/BRDMSO,GTP(+)−BRbackground×100 (10) where BR background is the binding ratio of the background obtained in the absence of GTP.

[14] = tested on: panel of type strains of Gram-positive and Gram-negative bacterial pathogens; assay: Antibiotic susceptibility test, summary over the whole panel; assay type: cell-based; conditions: MIC panel of Gram-positive and Gram-negative type strains
Experimental: as §1

[15] = ATCC27853, P. aeruginosa ATCC 27853, CAMHB, 35°C, 16 to 20 hours, read-out: Minimal inhibitory concentration
[16] = ATCC10211, H. influenzae ATCC 10211, CAMHB, 35°C, 16 to 20 hours, read-out: Minimal inhibitory concentration
[17] = ATCC19606, A. baumannii ATCC 19606, CAMHB, 35°C, 16 to 20 hours, read-out: Minimal inhibitory concentration
[18] = ATCC19434, E. faecium ATCC 19434, CAMHB, 35°C, 16 to 20 hours, read-out: Minimal inhibitory concentration
[19] = S. aureus SR3637 (MRSA), CAMHB, 35°C, 16 to 20 hours
[20] = ATCC13883, K. pneumoniae ATCC 13883, CAMHB, 35°C, 16 to 20 hours, read-out: Minimal inhibitory concentration
[21] = ATCC29212, E. faecalis ATCC 29212, CAMHB, 35°C, 16 to 20 hours, read-out: Minimal inhibitory concentration
[22] = S. pneumoniae Type I, CAMHB, 35°C, 16 to 20 hours
[23] = E. faecalis SR7914 (VRE), CAMHB, 35°C, 16 to 20 hours
[24] = E. faecium SR7917 (VRE), CAMHB, 35°C, 16 to 20 hours
[25] = ATCC25922, E. coli ATCC 25922, CAMHB, 35°C, 16 to 20 hours, read-out: Minimal inhibitory concentration
[26] = S. aureus ATCC 29213 (MSSA), CAMHB, 35°C, 16 to 20 hours

SMILES | MIC [1, 15] [µg/mL] | MIC [2, 16] [µg/mL] | MIC [3, 17] [µg/mL] | MIC [4, 18] [µg/mL] | MIC [5, 19] [µg/mL] | MIC [6, 20] [µg/mL] | MIC [7, 21] [µg/mL] | MIC [8, 22] [µg/mL] | MIC [9, 23] [µg/mL] | MIC [10, 24] [µg/mL] | MIC [11, 25] [µg/mL] | MIC [12, 26] [µg/mL] | inhibition % [13] | other results
C[C@@H](O)[C@H]1C(=O)N2C(C(=O)O)=C(S[C@@H]3CN[C@H](CNS(N)(=O)=O)C3)[C@H](C)[C@H]12 [Doripenem, reference compound] | 0.5 (≈ 1.19 µM) | 0.125 (≈ 0.297 µM) | 1 (≈ 2.38 µM) | 8 (≈ 19 µM) | 16 (≈ 38 µM) | 0.125 (≈ 0.297 µM) | 1 (≈ 2.38 µM) | ≤ 0.063 | 8 (≈ 19 µM) | 64 (≈ 152 µM) | ≤ 0.063 | ≤ 0.063 | – | Minimal inhibitory concentration [12, 26]: ≦0.063 μg/mL
CS(=O)(=O)NC1=NN2C(=NC(c3ccccc3)=CC2c2ccccc2Cl)N1 (centres unmarked) [Chemical #6] | > 64 | > 64 | > 64 | > 64 | > 64 | > 64 | > 64 | > 64 | > 64 | > 64 | > 64 | > 64 | 40.9 (1.2) % | –
COc1ccc(C2C=C(c3ccc(Br)cc3)N=C3NC(NS(C)(=O)=O)=NN32)cc1 (centres unmarked) [Chemical #1] | > 64 | > 64 | > 64 | > 64 | > 64 | > 64 | > 64 | > 64 | > 64 | > 64 | > 64 | > 64 | 88.6 (6.8) % | –
O=C(NNS(=O)(=O)c1cc(Cl)ccc1Cl)c1cc2c(s1)CCCC2 [Chemical #3] | > 64 | > 64 | > 64 | > 64 | > 64 | > 64 | > 64 | > 64 | > 64 | > 64 | > 64 | > 64 | 68.5 (1.7) % | –
O=C(c1cccc(-n2cnnc2)c1)N1CC2CCC(Cc3cccc(Cl)c3)C2C1 (centres unmarked) [Chemical #5] | > 64 | > 64 | > 64 | > 64 | > 64 | > 64 | > 64 | > 64 | > 64 | > 64 | > 64 | > 64 | 46.7 (11.4) % | –
COCCN(CCOC)P1(=O)C=C(c2ccccc2)SC(c2ccccc2)=C1 [Chemical #2] | – | – | – | – | – | – | – | – | – | – | – | – | 69.0 (2.4) % | antibacterial activity (in words) [14]: inhibited the growth of Staphylococcus spp. and Enterococcus spp; also recorded: no activity against other Gram-positive species or any of the Gram-negative pathogens tested; MIC ([1]; ATCC27853, read-out: Minimal inhibitory concentration): > 64 µg/mL; MIC ([2]; ATCC10211, read-out: Minimal inhibitory concentration): > 64 µg/mL; MIC ([3]; ATCC19606, read-out: Minimal inhibitory concentration): > 64 µg/mL; MIC ([4]; ATCC19434, read-out: Minimal inhibitory concentration): > 64 µg/mL; MIC ([5]; MRSA): 8 µg/mL (≈ 19.3 µM); MIC ([6]; ATCC13883, read-out: Minimal inhibitory concentration): > 64 µg/mL; MIC ([7]; ATCC29212, read-out: Minimal inhibitory concentration): 32 µg/mL (≈ 77 µM); MIC [8]: 64 µg/mL (≈ 154 µM); MIC ([9]; VRE): 32 µg/mL (≈ 77 µM); MIC ([10]; VRE): > 64 µg/mL; MIC ([11]; ATCC25922, read-out: Minimal inhibitory concentration): > 64 µg/mL; MIC [12]: 8 µg/mL (≈ 19.3 µM)
O=C(NNC(=S)NC1CC2CCC1C2)c1cc2ccccc2cc1O (centres unmarked) [Chemical #4] | > 32 | > 32 | > 32 | > 32 | > 32 | > 32 | > 32 | > 32 | > 32 | > 32 | > 32 | > 32 | 64.4 (5.8) % | –
